Literature values in patent US10058543B2, “Treatment of familial exudative vitreoretinopathy through S1PR2 inhibition” (DALHOUSIE UNIVERSITY, priority 2014, dated 2018).
“Also recorded” adds a separate entry of the source.

Legend:
[1] = target: S1PR2 (Homo sapiens, UniProt O95136)
[2] = system: VEGF; settings: ocular injection, FEVR patient, one study
VEGF, sequence (P15692 207-311 limits assumed): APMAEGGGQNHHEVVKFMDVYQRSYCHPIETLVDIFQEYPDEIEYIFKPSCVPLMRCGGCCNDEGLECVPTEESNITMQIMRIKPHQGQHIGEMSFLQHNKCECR

S1PR2, sequence (O95136 whole entry): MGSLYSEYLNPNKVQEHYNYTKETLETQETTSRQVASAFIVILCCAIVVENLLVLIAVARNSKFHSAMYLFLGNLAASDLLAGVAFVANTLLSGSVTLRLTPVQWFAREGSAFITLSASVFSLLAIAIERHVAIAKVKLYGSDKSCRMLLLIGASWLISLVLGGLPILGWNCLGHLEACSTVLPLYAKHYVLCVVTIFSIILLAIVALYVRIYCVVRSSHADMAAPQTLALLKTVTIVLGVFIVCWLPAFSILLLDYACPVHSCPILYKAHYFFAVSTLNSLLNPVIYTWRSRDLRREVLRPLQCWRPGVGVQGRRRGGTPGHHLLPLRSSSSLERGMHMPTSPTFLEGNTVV

Molecule: Cc1nn(C)c2nc(NNC(=O)Nc3cc(Cl)nc(Cl)c3)cc(C(C)C)c12 [JTE-103, 1-(2,6-dichloro-4-pyridyl)-3-[(4-isopropyl-1,3-dimethyl-pyrazolo[3,4-n]pyridin-6-yl)amino]urea]
- specificity for S1PR2 versus other S1PRs [1]: 10 fold
- affinity ([1]; S1PR2, stated in words): uM affinity; also recorded: low affinity
- specificity for S1PR2 ([1]; stated in words): some specificity for S1PR2

Molecule: bevacizumab: monoclonal antibody that inhibits VEGF function originally developed to treat cancers
- retinal hemorrhage and neovascularization [2]: improvement of retinal hemorrhage and neovascularization
